The record followed here is patent US9051270B2, “Pyridone amides as modulators of sodium channels” (Vertex Pharmaceuticals Incorporated, priority 2013, dated 2015).

SMILES strings stand for the structures. pIC50: −log10 of the molar value.

One may read the pIC50 as −log10 of the IC50, conventionally taken in molar units. A lower pIC50 goes with a large IC50.

For this assay, the target named is human Nav1.8 (Homo sapiens (Human), UniProt Q9Y5Y9). As to the kind of experiment: E-VIPR optical membrane potential assay with electrical stimulation. The format is cell-based. To be noted: HEK cells expressing human Nav1.8. From the text: Sodium channels are voltage-dependent proteins that can be activated by inducing membrane voltage changes by applying electric fields. […] The instrument comprises a microtiter plate handler, an optical system for exciting the coumarin dye while simultaneously recording the coumarin and oxonol emissions, a waveform generator, a current- or voltage-controlled amplifier, and a device for inserting electrodes in well. Under integrated computer control, this instrument passes user-programmed electrical stimulus protocols to cells within the wells of the microtiter plate.
human Nav1.8, sequence (Q9Y5Y9 whole entry): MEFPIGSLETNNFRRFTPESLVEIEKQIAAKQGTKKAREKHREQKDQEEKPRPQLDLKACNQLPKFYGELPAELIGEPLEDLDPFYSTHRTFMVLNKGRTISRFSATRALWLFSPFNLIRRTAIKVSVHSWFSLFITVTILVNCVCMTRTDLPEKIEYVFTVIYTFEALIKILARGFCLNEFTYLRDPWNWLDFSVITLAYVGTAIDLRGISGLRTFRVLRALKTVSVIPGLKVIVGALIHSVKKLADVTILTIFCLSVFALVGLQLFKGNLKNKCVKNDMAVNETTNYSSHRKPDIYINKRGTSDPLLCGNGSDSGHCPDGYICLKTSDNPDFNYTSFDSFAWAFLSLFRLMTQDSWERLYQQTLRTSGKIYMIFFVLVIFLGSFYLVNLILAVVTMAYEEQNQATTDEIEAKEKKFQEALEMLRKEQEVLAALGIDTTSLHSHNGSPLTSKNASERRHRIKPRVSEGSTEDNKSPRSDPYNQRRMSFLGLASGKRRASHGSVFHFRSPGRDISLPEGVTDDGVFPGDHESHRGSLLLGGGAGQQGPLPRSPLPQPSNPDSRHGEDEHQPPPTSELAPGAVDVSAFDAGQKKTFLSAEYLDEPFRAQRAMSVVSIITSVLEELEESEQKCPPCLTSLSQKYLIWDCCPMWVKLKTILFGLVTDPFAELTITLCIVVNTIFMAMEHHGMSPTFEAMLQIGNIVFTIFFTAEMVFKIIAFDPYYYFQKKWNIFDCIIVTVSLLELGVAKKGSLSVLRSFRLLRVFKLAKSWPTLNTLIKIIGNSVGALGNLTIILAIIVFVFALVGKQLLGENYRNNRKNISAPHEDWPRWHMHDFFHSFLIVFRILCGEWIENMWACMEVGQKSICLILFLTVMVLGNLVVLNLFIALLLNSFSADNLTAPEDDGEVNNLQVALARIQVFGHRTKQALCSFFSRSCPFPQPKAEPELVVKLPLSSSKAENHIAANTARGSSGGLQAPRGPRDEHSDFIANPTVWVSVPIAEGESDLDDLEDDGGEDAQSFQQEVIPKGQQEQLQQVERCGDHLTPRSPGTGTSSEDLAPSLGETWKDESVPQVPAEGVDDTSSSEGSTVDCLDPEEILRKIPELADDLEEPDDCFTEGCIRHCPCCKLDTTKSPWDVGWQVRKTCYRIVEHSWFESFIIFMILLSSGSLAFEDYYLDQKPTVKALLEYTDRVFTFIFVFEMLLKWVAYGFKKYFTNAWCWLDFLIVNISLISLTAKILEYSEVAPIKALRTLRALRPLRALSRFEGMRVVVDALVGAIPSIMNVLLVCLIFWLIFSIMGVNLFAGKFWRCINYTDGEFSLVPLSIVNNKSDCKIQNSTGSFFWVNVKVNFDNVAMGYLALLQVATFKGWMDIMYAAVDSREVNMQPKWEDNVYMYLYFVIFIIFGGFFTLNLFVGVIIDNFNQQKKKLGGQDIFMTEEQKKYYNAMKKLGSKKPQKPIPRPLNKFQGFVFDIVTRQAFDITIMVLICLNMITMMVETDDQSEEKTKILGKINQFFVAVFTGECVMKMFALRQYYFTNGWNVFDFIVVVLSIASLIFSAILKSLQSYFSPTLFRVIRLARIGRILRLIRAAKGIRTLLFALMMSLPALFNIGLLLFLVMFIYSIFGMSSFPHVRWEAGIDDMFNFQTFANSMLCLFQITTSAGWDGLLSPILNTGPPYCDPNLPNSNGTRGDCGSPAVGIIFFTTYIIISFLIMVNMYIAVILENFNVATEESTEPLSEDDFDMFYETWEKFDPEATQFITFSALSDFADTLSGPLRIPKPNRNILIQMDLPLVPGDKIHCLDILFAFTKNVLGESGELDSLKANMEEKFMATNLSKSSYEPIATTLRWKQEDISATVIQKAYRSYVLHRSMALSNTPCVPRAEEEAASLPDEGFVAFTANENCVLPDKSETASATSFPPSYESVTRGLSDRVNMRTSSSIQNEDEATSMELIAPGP
24 hours before the assay on E-VIPR, HEK cells expressing human Nav1.8 were seeded in 384-well poly-lysine coated plates at 15,000-20,000 cells per well. […] Cells were grown in vented cap flasks, in 90% humidity and 5% CO2.
To make the solution added volume of 10% Pluronic F127 stock equal to volumes of CC2-DMPE+DiSBAC6(3). The order of preparation was first mixing Pluronic and CC2-DMPE, then adding DiSBAC6(3) while vortexing, then adding Bath1+β-Cyclodextrin.
1) Pre-spotted compounds (in neat DMSO) into compound plates. […] Final compound plate volume was 80 μL (80-fold intermediate dilution from 1 μL DMSO spot; 160-fold final dilution after transfer to cell plate).
2) Prepared Hexyl Dye Solution.
3) Prepared cell plates. On the day of the assay, medium was aspirated and cells were washed three times with 100 μL of Bath1 Solution, maintaining 25 μL residual volume in each well.
4) Dispensed 25 μL per well of Hexyl Dye Solution into cell plates. Incubated for 20-35 minutes at room temp or ambient conditions.
5) Dispensed 80 μL per well of Bath1 into compound plates. Acid Yellow-17 (1 mM) was added and Potassium Chloride was altered from 4.5 to 20 mM depending on the NaV subtype and assay sensitivity.
6) Washed cell plates three times with 100 μL per well of Bath1, leaving 25 μL of residual volume. Then transferred 25 uL per well from Compound Plates to Cell Plates. Incubated for 20-35 minutes at room temp/ambient condition.
7) Read Plate on E-VIPR. […] A pre-stimulus recording was performed for 0.5 seconds to obtain the un-stimulated intensities baseline. The stimulatory waveform was followed by 0.5 seconds of post-stimulation recording to examine the relaxation to the resting state.
Data was analyzed and reported as normalized ratios of emission intensities measured in the 460 nm and 580 nm channels. The response as a function of time was reported as the ratios obtained using the following formula: […]
The data was further reduced by calculating the initial (Ri) and final (Rf) ratios. These were the average ratio values during part or all of the pre-stimulation period, and during sample points during the stimulation period. The response to the stimulus R=Rf/Ri was then calculated and reported as a function of time.
Control responses were obtained by performing assays in the presence of a compound with the desired properties (positive control), such as tetracaine, and in the absence of pharmacological agents (negative control). Responses to the negative (N) and positive (P) controls were calculated as above. The compound antagonist activity A is defined as:
[formula] where R is the ratio response of the test compound
`COc1ccc(Oc2ccc(C(F)(F)F)cc2C(=O)Nc2cc[nH]c(=O)c2)cc1` [Compound 45, 2-(4-methoxyphenoxy)-N-(2-oxo-1,2-dihydropyridin-4-yl)-5-(trifluoromethyl)benzamide] showed a negative logarithm of the IC50 (pIC50) of 7.19.
Under `CCOc1ccccc1Oc1ccc(C(F)(F)F)cc1C(=O)Nc1cc[nH]c(=O)c1` [Compound 46, 2-(2-ethoxyphenoxy)-N-(2-oxo-1,2-dihydropyridin-4-yl)-5-(trifluoromethyl)benzamide] stands 7.19; under `COc1cc(C)ccc1Oc1ccc(C(F)(F)F)cc1C(=O)Nc1cc[nH]c(=O)c1` [Compound 47, 2-(2-methoxy-4-methylphenoxy)-N-(2-oxo-1,2-dihydropyridin-4-yl)-5-(trifluoromethyl)benzamide], 6.87.
In the case of `COc1cccc(F)c1Oc1ccc(C(F)(F)F)cc1C(=O)Nc1cc[nH]c(=O)c1` [Compound 48, 2-(2-fluoro-6-methoxyphenoxy)-N-(2-oxo-1,2-dihydropyridin-4-yl)-5-(trifluoromethyl)benzamide] it was 5.57; in that of `COc1ccc(Oc2ccc(C(F)(F)F)cc2C(=O)Nc2cc[nH]c(=O)c2)c(Cl)c1` [Compound 49, 2-(2-chloro-4-methoxyphenoxy)-N-(2-oxo-1,2-dihydropyridin-4-yl)-5-(trifluoromethyl)benzamide], 7.62; in that of `Cc1cc(Cl)ccc1Oc1ccc(C(F)(F)F)cc1C(=O)Nc1cc[nH]c(=O)c1` [Compound 50, 2-(4-chloro-2-methylphenoxy)-N-(2-oxo-1,2-dihydropyridin-4-yl)-5-(trifluoromethyl)benzamide], 7.72.
Under `O=C(Nc1cc[nH]c(=O)c1)c1cc(C(F)(F)F)ccc1Oc1ccc(Cl)cc1F` [Compound 51, 2-(4-chloro-2-fluorophenoxy)-N-(2-oxo-1,2-dihydropyridin-4-yl)-5-(trifluoromethyl)benzamide] stands 7.06.
For the molecule `COc1ccc(F)cc1Oc1ccc(C(F)(F)F)cc1C(=O)Nc1cc[nH]c(=O)c1` [Compound 52, 2-(5-fluoro-2-methoxyphenoxy)-N-(2-oxo-1,2-dihydropyridin-4-yl)-5-(trifluoromethyl)benzamide], the pIC50 was 7.03. The pIC50 values of the last two molecules are within 0.2 log units of each other.
Under `CCCOc1ccc(Oc2ccc(C(F)(F)F)cc2C(=O)Nc2cc[nH]c(=O)c2)cc1` [Compound 53, N-(2-oxo-1,2-dihydropyridin-4-yl)-2-(4-propoxyphenoxy)-5-(trifluoromethyl)benzamide] stands 7.33.
With `COc1c(F)cccc1Oc1ccc(C(F)(F)F)cc1C(=O)Nc1cc[nH]c(=O)c1` [Compound 54, 2-(3-fluoro-2-methoxyphenoxy)-N-(2-oxo-1,2-dihydropyridin-4-yl)-5-(trifluoromethyl)benzamide], the pIC50 was 7.52. The pIC50 values of the last two molecules are within 0.2 log units of each other.
In the case of `COc1ccc(Oc2ccc(C(F)(F)F)cc2C(=O)Nc2cc[nH]c(=O)c2)c(F)c1` [Compound 55, 2-(2-fluoro-4-methoxyphenoxy)-N-(2-oxo-1,2-dihydropyridin-4-yl)-5-(trifluoromethyl)benzamide] it was 7.15; in that of `Cc1ccc(F)cc1Oc1ccc(C(F)(F)F)cc1C(=O)Nc1cc[nH]c(=O)c1` [Compound 56, 2-(5-fluoro-2-methylphenoxy)-N-(2-oxo-1,2-dihydropyridin-4-yl)-5-(trifluoromethyl)benzamide], 7.16; in that of `COc1cc(F)cc(Oc2ccc(C(F)(F)F)cc2C(=O)Nc2cc[nH]c(=O)c2)c1` [Compound 57, 2-(3-fluoro-5-methoxyphenoxy)-N-(2-oxo-1,2-dihydropyridin-4-yl)-5-(trifluoromethyl)benzamide], 5.16.
The molecule `O=C(Nc1cc[nH]c(=O)c1)c1cc(C(F)(F)F)ccc1Oc1ccc(Cl)cc1` [Compound 58, 2-(4-chlorophenoxy)-N-(2-oxo-1,2-dihydropyridin-4-yl)-5-(trifluoromethyl)benzamide] had a pIC50 of 7.27.
Take `COc1ccc(Oc2ccc(C(F)(F)F)cc2C(=O)Nc2cc[nH]c(=O)c2)cc1F` [Compound 59, 2-(3-fluoro-4-methoxyphenoxy)-N-(2-oxo-1,2-dihydropyridin-4-yl)-5-(trifluoromethyl)benzamide]: the pIC50 is 7.49.
As to `Cc1cc(F)ccc1Oc1ccc(C(F)(F)F)cc1C(=O)Nc1cc(Cl)[nH]c(=O)c1` [Compound 60, N-(6-chloro-2-oxo-1,2-dihydropyridin-4-yl)-2-(4-fluoro-2-methylphenoxy)-5-(trifluoromethyl)benzamide], the negative-log IC50 (pIC50) was 6.90.
Under `Cc1cc(NC(=O)c2cc(C(F)(F)F)ccc2Oc2ccc(F)cc2C)cc(=O)[nH]1` [Compound 61, 2-(4-fluoro-2-methylphenoxy)-N-(6-methyl-2-oxo-1,2-dihydropyridin-4-yl)-5-(trifluoromethyl)benzamide] stands 6.95.
Under `CCCOc1ccccc1Oc1ccc(C(F)(F)F)cc1C(=O)Nc1cc[nH]c(=O)c1` [Compound 62, N-(2-oxo-1,2-dihydropyridin-4-yl)-2-(2-propoxyphenoxy)-5-(trifluoromethyl)benzamide] stands 7.47.
Under `COc1ccc(Oc2ccc(C(F)(F)F)cc2C(=O)Nc2cc[nH]c(=O)c2)c(C)c1` [Compound 63, 2-(4-methoxy-2-methylphenoxy)-N-(2-oxo-1,2-dihydropyridin-4-yl)-5-(trifluoromethyl)benzamide] stands 7.74; under `CC(C)Oc1ccccc1Oc1ccc(C(F)(F)F)cc1C(=O)Nc1cc[nH]c(=O)c1` [Compound 64, 2-(2-isopropoxyphenoxy)-N-(2-oxo-1,2-dihydropyridin-4-yl)-5-(trifluoromethyl)benzamide], 6.97.
In turn, `O=C(Nc1cc[nH]c(=O)c1)c1cc(C(F)(F)F)ccc1Oc1ccccc1Cl` [Compound 65, 2-(2-chlorophenoxy)-N-(2-oxo-1,2-dihydropyridin-4-yl)-5-(trifluoromethyl)benzamide] gave a negative logarithm of the IC50 (pIC50) of 6.97.
`O=C(Nc1cc[nH]c(=O)c1)c1cc(Cl)ccc1Oc1ccc(F)cc1` [Compound 67, 5-chloro-2-(4-fluorophenoxy)-N-(2-oxo-1,2-dihydropyridin-4-yl)-benzamide] gave a negative logarithm of the IC50 (pIC50) of 7.16. The pIC50 values of the last two molecules are within 0.2 log units of each other.
As to `O=C(Nc1cc[nH]c(=O)c1)c1cc(Cl)ccc1Oc1ccc(F)cc1F` [Compound 69, 5-chloro-2-(2,4-difluorophenoxy)-N-(2-oxo-1,2-dihydropyridin-4-yl)benzamide], the negative logarithm of the IC50 (pIC50) was 6.95.
For `COc1cc(F)ccc1Oc1ccc(Cl)cc1C(=O)Nc1cc[nH]c(=O)c1` [Compound 70, 5-chloro-2-(4-fluoro-2-methoxyphenoxy)-N-(2-oxo-1,2-dihydropyridin-4-yl)benzamide], the pIC50 is 7.89.
On to `COc1ccc(Oc2ccc(Cl)cc2C(=O)Nc2cc[nH]c(=O)c2)cc1F` [Compound 71, 5-chloro-2-(3-fluoro-4-methoxyphenoxy)-N-(2-oxo-1,2-dihydropyridin-4-yl)benzamide], for which the pIC50 is 7.04.
Take `O=C(Nc1cc[nH]c(=O)c1)c1cc(C(F)(F)F)ccc1Oc1ccc(OC(F)F)cc1` [Compound 73, 2-(4-(difluoromethoxy)phenoxy)-N-(2-oxo-1,2-dihydropyridin-4-yl)-5-(trifluoromethyl)benzamide]: the pIC50 is 7.46. Against the preceding molecule, the pIC50 is 0.42 log units higher.
Turning to `O=C(Nc1cc[nH]c(=O)c1)c1cc(C(F)(F)F)ccc1Oc1ccc(C(F)(F)F)cc1` [Compound 74, N-(2-oxo-1,2-dihydropyridin-4-yl)-5-(trifluoromethyl)-2-(4-(trifluoromethyl)phenoxy)benzamide], the pIC50 was 5.29.
